Measurements as given in patent US20250127908A1, “HETEROBIFUNCTIONAL CONDITIONAL INHIBITORS” (Kolm Therapeutics Inc., priority 2023, published 2025).

Key:
[1] = system: AR and CBP or p300 ternary complex; assay: Ternary complex formation assay (sandwich ELISA on lysates of treated VCaP cells: AR capture, CBP or p300 detection); assay type: cell-based; conditions: VCaP cells treated with bifunctional for 1.5 hours; lysate; anti-AR capture, CBP or p300 antibody detection
Procedure: Example B-1: Ternary Complex Formation Assay
Preparation of Mouse Anti-AR Antibody Coated 96 Well Plates
Black MaxiSorp plates: coat with 50 μL of mouse 1/50 diluted AR antibody (Monoclonal Antibody (AR 441 from Thermo Fisher); diluted in phosphate buffered saline (PBS). Spin the liquid to the bottom of the wells, if necessary. Incubate overnight at 4° C. Next day, wash 3 times with 200 μL of TBST. Block with 200 μL of blocking buffer (5% BSA in TBST) at room temperature for 2 hours (BSA: A4503 or A2153 from Sigma). Wash plates 3 times with TBST. Plates are ready for lysates
Preparation of Dimerizer Treated Lysates
Culture cells in 96 wells at 50K VCaP cells/well for at least 3 days. Plate in 5% Omega charcoal stripped FBS in total volume of 200 uL. Treat with bifunctional for 1.5 hours by adding 1 μL of 200× stock in DMSO. Aspirate media/compound. Add and pipet-to-mix 70 μL of 1× AlphaLisa Lysis Buffer to each well (Perkin Elmer, AlphaLISA SureFire Ultra, diluted in water). Pipet up and down when adding lysis buffer to disrupt cells. Let lysis proceed for 30 min at 4° C.
Incubate for 1 hour at room temperature. Flick out the lysates. Wash 3 times with TBST. Add 75 uL of rabbit CBP or p300 antibody to each well (diluted 1:5000 in blocking buffer (5% BSA in TBST). CBP antibody: (D6C5) Rabbit mAb #7389; p300 antibody: (D8Z4E) Rabbit mAb #86377. Incubate overnight at 4° C. Wash 3 times with 300 uL TBST, each time on shaker for 5-10 min. Prepare goat anti-rabbit antibody conjugated to HRP (1/100K dilution in blocking buffer) Invitrogen Catalog number: 32260. Add 75 uL of HRP-conjugated goat anti-rabbit antibody. Incubate at room temperature for 1 hour. Flick out the HRP-antibody mixture. Wash 7-8 times with TBST, each time on shaker for 10 min. Later washes try to overflow the wells so that no residual HRP remains bound to the sides of the well. Prepare and add 75 uL/well of QuantaRed Enhance Chemifluorescent HRP Substrate solution. Immediately read fluorescence on BMG ClarioStar (ex: 570/em 585), and repeat the read in 5 minutes and 15 minutes.

[2] = system: VCaP cells; assay: VCaP growth inhibition assay (CTG); assay type: cell-based; conditions: Homo sapiens, 216 h, 30 pM R1881, 9-day treatment, CTG luminescence
Procedure: Example B-2: VCaP Growth Inhibition Assay
VCaP cells (ATCC Cat #CRL-2876) are plated at 1×10^4 cells per well of a white plastic 96-well cluster plate (Thermo Scientific Nunc Cat #165306) in 100 uL phenol red-free DMLEM (Gibco Cat #21063-029) media with […] (Omega Scientific Cat #FB-04). Cluster plates are returned to the incubator (37*C/5% CO2) for 72 hours prior to treatment. Just prior to treatment, 100 uL of phenol red-free DMEM/5% CSS and 60 pM Ri881 (Sigma Cat #R0908-10 mg) was added to each well of the cluster plates (Final R1881 concentration=30 pM). Compounds (200×) were added to each well in a volume of 1 uL, with serial dilutions (1:5) from 20 uM to 2 pM (final concentrations in well are 100 nM to 10 fMV). Cluster plates are returned to the incubator for 9 days.
After the 9-day treatment period, media was removed from the cluster plates by inversion and 100 uL room temperature CTG reagent (Promega Cat #G7573) is added to each well. The cluster plates are placed on a shaker and incubated at room temperature for 20 minutes. Following this shaking/incubation, cluster plates are read on a luminometer (BMG ClarioStar). IC50 values are obtained by graphing the RLU data vs. compound concentration with nonlinear regression 4-parameter logistic curves (GraphPad Prism).

SMILES | Average Ternary Complex [1] | IC50 [2] [nM]
CC(=O)N1CCc2c(c(N3CCCc4cc(-c5cnn(C)c5)c(C(F)F)cc43)nn2C2CCN(CCCOc3ccc(-c4ccc(N5C(=S)N(c6ccc(C#N)c(C(F)(F)F)c6)C(=O)C5(C)C)cc4)cc3)CC2)C1 [Compound 1, 4-[3-[4-[4-[3-[4-[5-acetyl-3-[7-(difluoromethyl)-6-(1-methylpyrazol-4-yl)-3,4-dihydro-2H-quinolin-1-yl]-6,7-dihydro-4H-pyrazolo[4,3-c]pyridin-1-yl]-1-piperidyl]propoxy]phenyl]phenyl]-4,4-dimethyl-5-oxo-2-thioxo-imidazolidin-1-yl]-2-(trifluoromethyl)benzonitrile] | B (B is >1 nM and ≤10 nM) | > 100
CC(=O)N1CCc2c(c(N3CCCc4cc(-c5cnn(C)c5)c(C(F)F)cc43)nn2C2CCN(CCOCCOc3ccc(C4CCN(c5ccc(C#N)c(C(F)(F)F)c5)CC4)cc3)CC2)C1 [Compound 2, 4-[4-[4-[2-[2-[4-[5-acetyl-3-[7-(difluoromethyl)-6-(1-methylpyrazol-4-yl)-3,4-dihydro-2H-quinolin-1-yl]-6,7-dihydro-4H-pyrazolo[4,3-c]pyridin-1-yl]-1-piperidyl]ethoxy]ethoxy]phenyl]-1-piperidyl]-2-(trifluoromethyl)benzonitrile] | D (D is active and >100 nM) | 
CC(=O)N1CCc2c(c(N3CCCc4cc(-c5cnn(C)c5)c(C(F)F)cc43)nn2C2CCN(CCCCOc3ccc(C4CCN(c5ccc(C#N)c(C(F)(F)F)c5)CC4)cc3)CC2)C1 [Compound 3, 4-[4-[4-[4-[4-[5-acetyl-3-[7-(difluoromethyl)-6-(1-methylpyrazol-4-yl)-3,4-dihydro-2H-quinolin-1-yl]-6,7-dihydro-4H-pyrazolo[4,3-c]pyridin-1-yl]-1-piperidyl]butoxy]phenyl]-1-piperidyl]-2-(trifluoromethyl)benzonitrile] | D (D is active and >100 nM) | 
CC(=O)N1CCc2c(c(N3CCCc4cc(-c5cnn(C)c5)c(C(F)F)cc43)nn2C2CCN(CCCOc3ccc(C4CCN(c5ccc(C#N)c(C(F)(F)F)c5)CC4)cc3)CC2)C1 [Compound 4, 4-[4-[4-[3-[4-[5-acetyl-3-[7-(difluoromethyl)-6-(1-methylpyrazol-4-yl)-3,4-dihydro-2H-quinolin-1-yl]-6,7-dihydro-4H-pyrazolo[4,3-c]pyridin-1-yl]-1-piperidyl]propoxy]phenyl]-1-piperidyl]-2-(trifluoromethyl)benzonitrile] | D (D is active and >100 nM) | > 100
CNC(=O)N1CCc2c(c(N3CCCc4cc(-c5cnn(C)c5)c(C(F)F)cc43)nn2C2CCN(C(=O)CC3CCN(c4ccc([C@H]5c6ccc(O)cc6CC[C@H]5c5ccccc5)cc4)CC3)CC2)C1 [Compound 6] |  | 1 to 100
CNC(=O)N1CCc2c(c(N3CCCc4cc(-c5cnn(C)c5)c(C(F)F)cc43)nn2C2CCN(C(=O)CCC3CCN(c4ccc([C@H]5c6ccc(O)cc6CC[C@H]5c5ccccc5)cc4)CC3)CC2)C1 [Compound 7] |  | 1 to 100
CNC(=O)N1CCc2c(c(N3CCCc4cc(-c5cnn(C)c5)c(C(F)F)cc43)nn2C2CCN(C(=O)COCC3CCN(c4ccc([C@H]5c6ccc(O)cc6CC[C@H]5c5ccccc5)cc4)CC3)CC2)C1 [Compound 8] |  | 1 to 100
CNC(=O)N1CCc2c(c(N3CCCc4cc(-c5cnn(C)c5)c(C(F)F)cc43)nn2C2CCN(C(=O)COCCCC3CCN(c4ccc([C@H]5c6ccc(O)cc6CC[C@H]5c5ccccc5)cc4)CC3)CC2)C1 [Compound 9] |  | 1 to 100
CNC(=O)N1CCc2c(c(N3CCCc4cc(-c5cnn(C)c5)c(C(F)F)cc43)nn2C2CCN(C(=O)COCCOCCN3CCN(CC4CCN(c5ccc([C@H]6c7ccc(O)cc7CC[C@H]6c6ccccc6)cc5)CC4)CC3)CC2)C1 [Compound 11] |  | > 100
CC(=O)N1CCc2c(c(N3CCCc4cc(C#N)ccc43)nn2C2CCN(C(=O)C3CCN(c4ccc(C5CCN(c6ccc(C#N)c(C(F)(F)F)c6)CC5)cc4)CC3)CC2)C1 [Compound 12, 1-[5-acetyl-1-[1-[1-[4-[1-[4-cyano-3-(trifluoromethyl)phenyl]-4-piperidyl]phenyl]piperidine-4-carbonyl]-4-piperidyl]-6,7-dihydro-4H-pyrazolo[4,3-c]pyridin-3-yl]-3,4-dihydro-2H-quinoline-6-carbonitrile] | D (D is active and >100 nM) | > 100
CC(=O)N1CCc2c(c(N3CCCc4cc(C#N)ccc43)nn2C2CCN(CC3CCN(c4ccc(C5CCN(c6ccc(C#N)c(C(F)(F)F)c6)CC5)cc4)CC3)CC2)C1 [Compound 13, 1-[5-acetyl-1-[1-[[1-[4-[1-[4-cyano-3-(trifluoromethyl)phenyl]-4-piperidyl]phenyl]-4-piperidyl]methyl]-4-piperidyl]-6,7-dihydro-4H-pyrazolo[4,3-c]pyridin-3-yl]-3,4-dihydro-2H-quinoline-6-carbonitrile] | D (D is active and >100 nM) | > 100
CC(=O)N1CCc2c(c(-c3cccc4cc(-c5ccc(CCC6CCN(c7ccc(C8CCN(c9ccc(C#N)c(C(F)(F)F)c9)CC8)cc7)CC6)nc5)ncc34)nn2C2CCOCC2)C1 [Compound 14, 4-[4-[4-[4-[2-[5-[8-(5-acetyl-1-tetrahydropyran-4-yl-6,7-dihydro-4H-pyrazolo[4,3-c]pyridin-3-yl)-3-isoquinolyl]-2-pyridyl]ethyl]-1-piperidyl]phenyl]-1-piperidyl]-2-(trifluoromethyl)benzonitrile] | D (D is active and >100 nM) | > 100
CC(=O)N1CCc2c(c(-c3cccc4cc(-c5cnn(CCOC6CCN(c7ccc(C8CCN(c9ccc(C#N)c(C(F)(F)F)c9)CC8)cc7)CC6)c5)ncc34)nn2C2CCOCC2)C1 [Compound 15, 4-[4-[4-[4-[2-[4-[8-(5-acetyl-1-tetrahydropyran-4-yl-6,7-dihydro-4H-pyrazolo[4,3-c]pyridin-3-yl)-3-isoquinolyl]pyrazol-1-yl]ethoxy]-1-piperidyl]phenyl]-1-piperidyl]-2-(trifluoromethyl)benzonitrile] | D (D is active and >100 nM) | 1 to 100
CC(=O)N1CCc2c(c(N3CCCc4cc(-c5cnn(C)c5)c(C(F)F)cc43)nn2C2CCN(C3CCC(Oc4ccc(-c5ccc(N6C(=S)N(c7ccc(C#N)c(C(F)(F)F)c7)C(=O)C6(C)C)cc5)cc4)C3)CC2)C1 (centres unmarked) [Compound 18] | B (B is >1 nM and ≤10 nM) | 
CC(=O)N1CCc2c(c(N3CCCc4cc(-c5cnn(C)c5)c(C(F)F)cc43)nn2C2CCN(C3CC(Oc4ccc(-c5ccc(N6C(=S)N(c7ccc(C#N)c(C(F)(F)F)c7)C(=O)C6(C)C)cc5)cc4)C3)CC2)C1 (centres unmarked) [Compound 19] | B (B is >1 nM and ≤10 nM) | 
CC(=O)N1CCc2c(c(N3CCCc4cc(-c5cnn(C)c5)c(C(F)F)cc43)nn2C2CCN(CCOC3CCN(c4ccc(N5C(=S)N(c6ccc(C#N)c(C(F)(F)F)c6)C(=O)C5(C)C)cc4)CC3)CC2)C1 [Compound 20] | B (B is >1 nM and ≤10 nM) | 
CC(=O)N1CCc2c(c(N3CCCc4cc(-c5cnn(C)c5)c(C(F)F)cc43)nn2C2CCN(C(=O)COC3CCN(c4ccc(N5C(=S)N(c6ccc(C#N)c(C(F)(F)F)c6)C(=O)C5(C)C)cc4)CC3)CC2)C1 [Compound 21] | B (B is >1 nM and ≤10 nM) | 
